Measurements taken from patent US12686690B2, “Macrocyclic urea orexin receptor agonists” (Merck Sharp & Dohme LLC, priority 2020, dated 2026).

Target: T1, hOX2R (Homo sapiens, UniProt O43614)
T1 construct: expressed in transfected cells; host or cells: CHO cells (G418 selection)
T1 sequence (O43614 1-444): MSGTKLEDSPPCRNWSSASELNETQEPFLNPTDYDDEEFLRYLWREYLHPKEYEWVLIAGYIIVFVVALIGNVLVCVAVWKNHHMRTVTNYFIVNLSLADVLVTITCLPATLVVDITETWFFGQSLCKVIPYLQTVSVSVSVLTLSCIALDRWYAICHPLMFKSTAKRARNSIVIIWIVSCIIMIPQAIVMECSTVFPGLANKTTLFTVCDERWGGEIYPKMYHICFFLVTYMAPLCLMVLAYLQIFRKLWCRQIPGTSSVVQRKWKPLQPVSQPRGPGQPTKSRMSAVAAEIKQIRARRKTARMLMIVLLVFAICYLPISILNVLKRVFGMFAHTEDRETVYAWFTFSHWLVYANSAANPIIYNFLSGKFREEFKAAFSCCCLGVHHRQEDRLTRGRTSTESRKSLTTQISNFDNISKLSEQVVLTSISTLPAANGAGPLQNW
Experiment: hOX2R IPone assay (orexin receptor agonism)
Type: cell-based
Conditions: IPone readout; for hOX2R_Ipone max %act: maximal activation; for EC50: orexin receptor agonist, read-out: hOX2R_IPone EC50

Compound | hOX2R_Ipone max %act [%] | EC50 [nM]
CCN1C(=O)NC(C2CC2)CCCCCOc2nc(cn3ccnc23)-c2cc(ncc2OC)[C@H]1C (single isomer, unassigned) [Example 57A] | 100.7 | 119
CCN1C(=O)NC(C2CC2)CCCCCOc2nc(cn3ccnc23)-c2cc(ncc2OC)[C@H]1C (single isomer, unassigned) [Example 57B] | 101.6 | 1.2
CCN1C(=O)NC(COC)CCCCCOc2nc(cn3ccnc23)-c2cc(ncc2OC)[C@H]1C (single isomer, unassigned) [Example 58A] | 100.8 | 48.9
CCN1C(=O)NC(COC)CCCCCOc2nc(cn3ccnc23)-c2cc(ncc2OC)[C@H]1C (single isomer, unassigned) [Example 58B] | 101.1 | 0.9
CCN1C(=O)NC(CC2CC2(F)F)CCCCCOc2nc(cn3ccnc23)-c2cc(ncc2OC)[C@H]1C (single isomer, unassigned) [Example 59A] | 101.6 | 4.1
CCN1C(=O)NC(CC2CC2(F)F)CCCCCOc2nc(cn3ccnc23)-c2cc(ncc2OC)[C@H]1C (single isomer, unassigned) [Example 59B] | 100.1 | 3.1
CCN1C(=O)NC(CC2CC2(F)F)CCCCCOc2nc(cn3ccnc23)-c2cc(ncc2OC)[C@H]1C (single isomer, unassigned) [Example 59C] | 99.3 | 0.5
CCN1C(=O)NC(CC2CC2(F)F)CCCCCOc2nc(cn3ccnc23)-c2cc(ncc2OC)[C@H]1C (single isomer, unassigned) [Example 59D] | 100.9 | 0.9
CCN1C(=O)NC(CCCOC)CCCCCOc2nc(cn3ccnc23)-c2cc(ncc2OC)[C@H]1C (single isomer, unassigned) [Example 60A] | 100.4 | 52.1
CCN1C(=O)NC(CCCOC)CCCCCOc2nc(cn3ccnc23)-c2cc(ncc2OC)[C@H]1C (single isomer, unassigned) [Example 60B] | 100.9 | 2.2
CCN1C(=O)NC(CC2CCC2)CCCCCOc2nc(cn3ccnc23)-c2cc(ncc2OC)[C@H]1C (single isomer, unassigned) [Example 61A] | 100.3 | 34.6
CCN1C(=O)NC(CC2CCC2)CCCCCOc2nc(cn3ccnc23)-c2cc(ncc2OC)[C@H]1C (single isomer, unassigned) [Example 61B] | 100.9 | 1.3
CCOCC1CCCCCOc2nc(cn3ccnc23)-c2cc(ncc2OC)[C@@H](C)N(CC)C(=O)N1 (single isomer, unassigned) [Example 62A] | 99.9 | 39.2
CCOCC1CCCCCOc2nc(cn3ccnc23)-c2cc(ncc2OC)[C@@H](C)N(CC)C(=O)N1 (single isomer, unassigned) [Example 62B] | 100.9 | 1.4
CCN1C(=O)NC(C(C)(C)C)CCCCCOc2nc(cn3ccnc23)-c2cc(ncc2OC)[C@H]1C (single isomer, unassigned) [Example 63A] | 98.43 | 315
CCN1C(=O)NC(C(C)(C)C)CCCCCOc2nc(cn3ccnc23)-c2cc(ncc2OC)[C@H]1C (single isomer, unassigned) [Example 63B] | 103.3 | 5.1
CCC(CC)CC1CCCCCOc2nc(cn3ccnc23)-c2cc(ncc2OC)[C@@H](C)N(CC)C(=O)N1 (single isomer, unassigned) [Example 64A] | 102.7 | 3.5
CCC(CC)CC1CCCCCOc2nc(cn3ccnc23)-c2cc(ncc2OC)[C@@H](C)N(CC)C(=O)N1 (single isomer, unassigned) [Example 64B] | 99.8 | 1.6
CCN1C(=O)NC(CC2CCCC2)CCCCCOc2nc(cn3ccnc23)-c2cc(ncc2OC)[C@H]1C (single isomer, unassigned) [Example 65A] | 102.4 | 13.5
CCN1C(=O)NC(CC2CCCC2)CCCCCOc2nc(cn3ccnc23)-c2cc(ncc2OC)[C@H]1C (single isomer, unassigned) [Example 65B] | 101.9 | 1
CCN1C(=O)NC(CC2(C(F)(F)F)CC2)CCCCCOc2nc(cn3ccnc23)-c2cc(ncc2OC)[C@H]1C (single isomer, unassigned) [Example 66A] | 102.9 | 9.6
CCN1C(=O)NC(CC2(C(F)(F)F)CC2)CCCCCOc2nc(cn3ccnc23)-c2cc(ncc2OC)[C@H]1C (single isomer, unassigned) [Example 66B] | 101.1 | 0.7

Compound | hOX2R_Ipone max %act [%] | EC50 [nM]
CCN1C(=O)NC(CC2CCOC2)CCCCCOc2nc(cn3ccnc23)-c2cc(ncc2OC)[C@H]1C (single isomer, unassigned) [Example 67A] | 99.8 | 9.6
CCN1C(=O)NC(CC2CCOC2)CCCCCOc2nc(cn3ccnc23)-c2cc(ncc2OC)[C@H]1C (single isomer, unassigned) [Example 67B] | 101 | 2.1
CCN1C(=O)NC(C2CCOCC2)CCCCCOc2nc(cn3ccnc23)-c2cc(ncc2OC)[C@H]1C (single isomer, unassigned) [Example 68A] | 100.1 | 38.4
CCN1C(=O)NC(C2CCOCC2)CCCCCOc2nc(cn3ccnc23)-c2cc(ncc2OC)[C@H]1C (single isomer, unassigned) [Example 68B] | 101.5 | 1.5
CCN1C(=O)NC(CC2CC(F)(F)C2)CCCCCOc2nc(cn3ccnc23)-c2cc(ncc2OC)[C@H]1C (single isomer, unassigned) [Example 69A] | 99.7 | 6.6
CCN1C(=O)NC(CC2CC(F)(F)C2)CCCCCOc2nc(cn3ccnc23)-c2cc(ncc2OC)[C@H]1C (single isomer, unassigned) [Example 69B] | 101.1 | 0.6
CCN1C(=O)NC(CC2(C(F)F)CC2)CCCCCOc2nc(cn3ccnc23)-c2cc(ncc2OC)[C@H]1C (single isomer, unassigned) [Example 70A] | 99.1 | 16.5
CCN1C(=O)NC(CC2(C(F)F)CC2)CCCCCOc2nc(cn3ccnc23)-c2cc(ncc2OC)[C@H]1C (single isomer, unassigned) [Example 70B] | 99.8 | 1.1
CCN1C(=O)NC(CCC(C)(C)F)CCCCCOc2nc(cn3ccnc23)-c2cc(ncc2OC)[C@H]1C (single isomer, unassigned) [Example 71A] | 100.5 | 4.2
CCN1C(=O)NC(CCC(C)(C)F)CCCCCOc2nc(cn3ccnc23)-c2cc(ncc2OC)[C@H]1C (single isomer, unassigned) [Example 71B] | 101.6 | 1.6
CCN1C(=O)NC(CCC(C)F)CCCCCOc2nc(cn3ccnc23)-c2cc(ncc2OC)[C@H]1C (single isomer, unassigned) [Example 72A] | 99.5 | 5.6
CCN1C(=O)NC(CCC(C)F)CCCCCOc2nc(cn3ccnc23)-c2cc(ncc2OC)[C@H]1C (single isomer, unassigned) [Example 72B] | 102.7 | 0.7
CCN1C(=O)NC(CCOC(F)(F)F)CCCCCOc2nc(cn3ccnc23)-c2cc(ncc2OC)[C@H]1C (single isomer, unassigned) [Example 73A] | 100.6 | 8.6
CCN1C(=O)NC(CCOC(F)(F)F)CCCCCOc2nc(cn3ccnc23)-c2cc(ncc2OC)[C@H]1C (single isomer, unassigned) [Example 73B] | 99.6 | 0.8
CCN1C(=O)N[C@@H](CCC(F)(F)F)CCCCCOc2nc(cn3ccnc23)-c2cc(nc3ccoc23)C1C (single isomer, unassigned) [Example 74A] | 99.5 | 17.3
CCN1C(=O)N[C@@H](CCC(F)(F)F)CCCCCOc2nc(cn3ccnc23)-c2cc(nc3ccoc23)C1C (single isomer, unassigned) [Example 74B] | 101.2 | 0.9
CCN1C(=O)N[C@@H](CCC(F)(F)F)CCCCCOc2nc(cn3cc(C)nc23)-c2cc(nc3ccoc23)C1C (single isomer, unassigned) [Example 75A] | 96.6 | 528
CCN1C(=O)N[C@@H](CCC(F)(F)F)CCCCCOc2nc(cn3cc(C)nc23)-c2cc(nc3ccoc23)C1C (single isomer, unassigned) [Example 75B] | 101.4 | 6
CCN1C(=O)N[C@@H](CCC(F)(F)F)CCCCCOc2nc(cn3c(C)cnc23)-c2cc(nc3ccoc23)C1C (single isomer, unassigned) [Example 76A] | 98.9 | 204
CCN1C(=O)N[C@@H](CCC(F)(F)F)CCCCCOc2nc(cn3c(C)cnc23)-c2cc(nc3ccoc23)C1C (single isomer, unassigned) [Example 76B] | 100.4 | 3.4
CCN1C(=O)N[C@@H](CCC(F)(F)F)CCCCCOc2cc(cc3ccnn23)-c2nc(cnc2OC)C1C (single isomer, unassigned) [Example 80A] | 98.9 | 370
